According to patent publication US12018005B1, “Blarcamesine co-crystals for the manufacture of pharmaceutical dosage form” (EGIS GYÓGYSZERGYÁR ZRT., priority 2023, dated 2024):

What was measured:
Format in all cases: physicochemical
[1] = crystal structure after wet grinding; conditions: subjected to wet grinding
[2] = solubility over the relevant pH range; conditions: entire relevant pH range
[3] = resistance to oxidative stress; conditions: compared with blarcamesine hydrochloric acid salt

Compound	retention of crystal structure / polymorphic form after wet grinding [1]	solubility [2]	resistance to oxidative stress [3]
CN(C)CC1CCOC1(c1ccccc1)c1ccccc1.Cl (racemic) [hydrochloric acid salt, [(2,2-diphenyloxolan-3-yl)methyl]dimethylamine hydrochloride]	polymorphic form of the hydrochloride salt changes	extreme solubility	
(S)-(−)-blarcamesine hydrochloride, (R)-(+)-blarcamesine hydrochloride, ZnCl2 (1:1:1) co-crystal [ZnCl2 co-crystal]	retains its crystal structure		more resistant to oxidative stress than the hydrochloric acid salt
